Laboratory results reported in patent US11834663B2, “Fibrotic treatment” (Monash University, priority 2015, dated 2023).

Tested on: human cardiac fibroblasts (HCFs)
Assay: Human cardiac fibroblasts stimulated with Ang II: α-SMA and collagen expression
Assay type: cell-based
Settings: HCFs + Ang II 0.1 μM, HFI-419 0.01 to 1 μM, approx. 72 hours; FIG. 26
Experimental: Commercially available human cardiac fibroblasts (HCF, Catalog #6300, Sciencell, CA, USA) were grown in T75 flask maintained in an incubator at 37° C., 5% CO2. Complete media composition: M199 media (#11150-059, life technologies)+10% FBS (#10437-028, life technologies)+1% Fibroblast Growth Supplement-2 (#2382, ScienCell)+1% penicillin/streptomycin 10,000 U/ml antibiotics (#15140-122, Life Technologies). Fresh complete media was replenished every alternate day until culture reached 70% confluence in which media is replenished daily until it reached approximately 90% confluence in order to passage/subculture. To subculture, media was discarded and culture was rinsed with warm PBS. After which, culture was detached using warm 0.05% Trypsin+EDTA with gentle swirling of flask to make sure cells were not adherent to surface of flask. Trypsin was then neutralized with complete media and suspension was then transferred into a new falcon tube and centrifuged at 1000 rpm for 5 minutes. […]
Once treatment is complete, cells were washed with warm PBS and detached using Accutase (A6964, Sigma), with 5 minutes incubation at 37° C. […] The supernatant (˜20 ul) was transferred to a new tube and protein concentrations were measured using Biorad Lowry protein assay. Protein quantification of respective markers were performed via standard western blot analysis. […]

Structure (SMILES): CCOC(=O)C1=C(NC(C)=O)Oc2cc(O)ccc2C1c1cccnc1 (centres unmarked) [HFI-419]
- collagen production in human cardiac fibroblasts: dose-dependently decreased
- myofibroblast expression (α-SMA) in human cardiac fibroblasts: dose-dependently decreased
